Test results published in patent publication US11214803B2, “Modulators of YAP1 expression” (Ionis Pharmaceuticals, Inc., priority 2019, dated 2022).
Marks after values point to notes of the source that are not given here. Strand notation (5' to 3'): a small letter for the sugar, then the base; units joined by * are phosphorothioate-linked, units joined directly phosphodiester-linked; [ ] holds rarer units or linkages, { } end groups; capitals alone tell only the bases. k = constrained ethyl (cEt); [5mC] = 5-methylcytosine; d = 2'-deoxy (DNA)

System: Yap1 mRNA
Assay: Antisense inhibition of human Yap1 in A-431 cells by cEt gapmers, single dose (Example 3, RTS36584)
Type: cell-based
Details: Table 8; A-431 cells, 5,000 cells per well, free uptake, 2,000 nM, approximately 48 hours; RTS36584; normalized to RIBOGREEN; Yap1 mRNA relative to untreated control cells
Summary of the method: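 A-431 cells were treated by free uptake with 2,000 nM modified oligonucleotide (3-10-3 cEt gapmers, full phosphorothioate, 5-methylcytosines) for about 48 hours. Yap1 mRNA was quantified by real-time RT-PCR, normalized to RiboGreen total RNA, and expressed as % of untreated control; asterisked values mark oligonucleotides targeting the amplicon region.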

Substance | YAP1 (% UTC)
958401 (antisense kA*kG*kT*dT*dA*dT*dT*d[5mC]*dA*dG*d[5mC]*dA*dG*k[5mC]*kT*kT) [Compound 958401] | 19 % UTC
958369 (antisense kT*kT*kA*dT*d[5mC]*dT*dA*dG*d[5mC]*dT*dT*dG*dG*kT*kG*kG) [Compound 958369] | 4 % UTC
958358 (antisense kG*kG*k[5mC]*dG*dG*d[5mC]*dT*dT*dG*dA*dA*dG*dA*kA*kG*kG) [Compound 958358] | 34 % UTC
958399 (antisense kG*kA*k[5mC]*d[5mC]*dA*dA*d[5mC]*dT*dA*d[5mC]*dT*dT*dG*kA*kA*kG) [Compound 958399] | 45 % UTC
958416 (antisense kG*k[5mC]*kT*dG*dT*dG*dT*dA*dG*dG*d[5mC]*dT*dG*kA*k[5mC]*kT) [Compound 958416] | 36 % UTC
958366 (antisense kT*kG*kT*dA*dG*d[5mC]*dT*dG*d[5mC]*dT*d[5mC]*dA*dT*kG*k[5mC]*kT) [Compound 958366] | 16* % UTC
958406 (antisense kT*kT*kT*d[5mC]*dA*dG*dT*dT*dA*dT*d[5mC]*dG*dG*k[5mC]*k[5mC]*k[5mC]) [Compound 958406] | 29 % UTC

Same assay, conditions: Table 9; A-431 cells, 5,000 cells per well, free uptake, 2,000 nM, approximately 48 hours; RTS36584; normalized to RIBOGREEN; Yap1 mRNA relative to untreated control cells

Substance | YAP1 (% UTC)
958436 (antisense kT*k[5mC]*k[5mC]*d[5mC]*dT*dT*dG*dA*d[5mC]*dG*dG*dA*dG*kG*k[5mC]*k[5mC]) [Compound 958436] | 124 % UTC
958556 (k[5mC]*kA*kA*d[5mC]*d[5mC]*dA*dA*d[5mC]*dT*dA*dT*dT*dA*k[5mC]*kT*kT; antisense) [Compound 958556] | 10 % UTC
958781 (antisense kG*kT*k[5mC]*dA*dT*d[5mC]*dT*dA*dT*dG*dT*dG*dT*k[5mC]*k[5mC]*kT) [Compound 958781] | 6 % UTC
958751 (antisense kT*k[5mC]*kA*dA*dT*dG*d[5mC]*dA*dG*dG*dA*dT*dT*k[5mC]*k[5mC]*kA) [Compound 958751] | 30 % UTC
958656 (kA*k[5mC]*kG*d[5mC]*dA*dA*dT*d[5mC]*dT*dG*dT*dG*dA*kT*k[5mC]*k[5mC]; antisense) [Compound 958656] | 48 % UTC

Same assay, conditions: Table 10; A-431 cells, 5,000 cells per well, free uptake, 2,000 nM oligonucleotide, approx. 48 hours; primer probe set RTS36584; Yap1 mRNA normalized to RIBOGREEN, percent of untreated control

Substance | YAP1 (% UTC)
958762 (antisense kG*kA*kT*dT*dA*dG*dA*dG*dG*dA*d[5mC]*dT*d[5mC]*kA*kT*kT) [Compound 958762] | 16 % UTC
958512 (k[5mC]*kA*kT*dT*d[5mC]*d[5mC]*dA*d[5mC]*dT*dA*d[5mC]*d[5mC]*dA*k[5mC]*kA*k[5mC]; antisense) [Compound 958512] | 14 % UTC
958552 (kT*kA*kT*dT*dA*d[5mC]*dT*d[5mC]*d[5mC]*dT*dG*dT*dA*kG*kA*k[5mC]; antisense) [Compound 958552] | 16 % UTC
958807 (kT*k[5mC]*kA*dT*dT*dG*dT*dA*dG*dT*d[5mC]*dT*dG*kT*k[5mC]*kT; antisense) [Compound 958807] | 3 % UTC
958517 (kT*k[5mC]*kT*dA*dG*dA*dA*d[5mC]*dA*d[5mC]*dT*dA*dA*kA*k[5mC]*kT; antisense) [Compound 958517] | 88 % UTC

Same assay, conditions: Table 11; A-431 cells, 5,000 cells per well, free uptake, 2,000 nM oligonucleotide, approx. 48 hours; primer probe set RTS36584; Yap1 mRNA normalized to RIBOGREEN, percent of untreated control

Substance | YAP1 (% UTC)
958713 (antisense kT*kG*k[5mC]*dT*dA*dG*dA*dG*dG*d[5mC]*dT*dG*dT*kT*k[5mC]*k[5mC]) [Compound 958713] | 55 % UTC
958533 (kG*k[5mC]*kA*dT*dA*dG*dA*dA*dG*dT*dA*dG*dG*kA*kG*k[5mC]; antisense) [Compound 958533] | 3 % UTC
958788 (antisense k[5mC]*kT*kG*dG*dG*d[5mC]*dA*dA*dA*dG*dT*dT*d[5mC]*k[5mC]*kT*k[5mC]) [Compound 958788] | 54 % UTC

Same assay, conditions: Table 12; A-431 cells, 5,000 cells per well, free uptake, 2,000 nM modified oligonucleotide, approx. 48 hours; RTS36584; normalized to RIBOGREEN; Yap1 mRNA relative to untreated control cells

Substance | YAP1 (% UTC)
958514 (kT*kA*k[5mC]*dT*dA*dG*dT*d[5mC]*dA*dT*dG*dT*dA*kT*kT*k[5mC]; antisense) [Compound 958514] | 20 % UTC
958444 (antisense kA*k[5mC]*kG*d[5mC]*d[5mC]*d[5mC]*d[5mC]*dG*dG*d[5mC]*dT*d[5mC]*d[5mC]*kA*k[5mC]*kG) [Compound 958444] | 97 % UTC
958739 (antisense kA*kG*k[5mC]*dA*dA*dT*dA*dG*dA*dG*dT*dA*dA*k[5mC]*k[5mC]*kA) [Compound 958739] | 4 % UTC
958504 (kA*kT*k[5mC]*dG*dA*dG*dA*dT*dT*dT*dA*dA*dA*kT*kA*kA; antisense) [Compound 958504] | 63 % UTC

Same assay, conditions: Table 13; A-431 cells, 5,000 cells per well, free uptake, 2,000 nM modified oligonucleotide, approx. 48 hours; RTS36584; normalized to RIBOGREEN; Yap1 mRNA relative to untreated control cells

Substance | YAP1 (% UTC)
958635 (antisense kG*kT*kT*dT*dA*dG*dG*d[5mC]*dA*dA*dG*d[5mC]*dA*kG*k[5mC]*kT) [Compound 958635] | 43 % UTC

Same assay, conditions: Table 26; Yap1 mRNA by 3-10-3 cEt gapmers targeting SEQ ID NO.: 1, and 2; percent of untreated control

Substance | YAP1 (% UTC)
1075788 (kT*k[5mC]*kT*dT*dA*dA*dG*dG*dA*dT*dT*dG*dG*k[5mC]*kT*kA; antisense) [compound 1075788] | 15 % UTC
1075500 (kT*kA*kA*dA*dT*dT*dA*dA*dG*d[5mC]*d[5mC]*dA*dA*k[5mC]*kA*k[5mC]; antisense) [compound 1075500] | 26 % UTC

Same assay, conditions: Table 27; Yap1 mRNA by 3-10-3 cEt gapmers targeting SEQ ID NO.: 1, and 2; percent of untreated control

Substance | YAP1 (% UTC)
1074733 (kG*k[5mC]*k[5mC]*dA*dG*dG*dT*dA*dT*d[5mC]*dA*d[5mC]*dA*kG*kT*kA; antisense) [compound 1074733] | 47 % UTC

Same assay, conditions: Table 28; Yap1 mRNA as percent of untreated control; 3-10-3 cEt gapmers targeting SEQ ID NO.: 1, and 2

Substance | YAP1 (% UTC)
1075022 (antisense kA*kT*kT*dT*dA*d[5mC]*dA*dA*d[5mC]*d[5mC]*dT*dA*dG*kA*kT*kT) [compound 1075022] | 91 % UTC
1074158 (kG*kA*kG*d[5mC]*dG*dA*dG*dG*dG*d[5mC]*dT*dA*d[5mC]*kG*k[5mC]*k[5mC]; antisense) [compound 1074158] | 72 % UTC
1074702 (antisense kG*kG*kT*dG*dT*dA*dA*dG*dA*d[5mC]*dA*dA*dG*kT*k[5mC]*kT) [compound 1074702] | 16 % UTC

Same assay, conditions: Table 29; Yap1 mRNA as percent of untreated control; 3-10-3 cEt gapmers targeting SEQ ID NO.: 1, and 2

Substance | YAP1 (% UTC)
1074255 (antisense kT*k[5mC]*kA*dT*d[5mC]*dT*dG*dG*dG*dA*d[5mC]*dA*dG*k[5mC]*kA*kT) [compound 1074255] | 16 % UTC
1074927 (antisense kT*kA*k[5mC]*dA*dA*d[5mC]*dA*dG*dG*d[5mC]*d[5mC]*dT*dG*k[5mC]*kA*kA) [compound 1074927] | 74 % UTC
1075119 (kA*kG*kG*dG*dA*dA*dT*dA*dT*dG*dT*dT*dA*kA*kT*k[5mC]; antisense) [compound 1075119] | 8 % UTC

Same assay, conditions: Table 34; Yap1 mRNA as percent of untreated control; 3-10-3 cEt gapmers targeting SEQ ID NO: 1 and 2; single dose

Substance | YAP1 (% UTC)
1076308 (kA*kG*kT*dA*dA*dT*dT*dA*d[5mC]*d[5mC]*dT*d[5mC]*dT*kA*kA*kT; antisense) [compound 1076308] | 32 % UTC
1075380 (antisense kA*k[5mC]*kT*dA*dA*dA*dA*d[5mC]*dT*dG*dA*d[5mC]*dT*kG*kT*k[5mC]) [compound 1075380] | 94 % UTC
1076052 (kG*k[5mC]*kA*dA*dT*dA*dA*dA*dG*d[5mC]*dT*dG*dA*kA*k[5mC]*kT; antisense) [compound 1076052] | 23 % UTC
1074868 (kG*kT*kA*d[5mC]*d[5mC]*dT*dA*dA*d[5mC]*dA*dT*dA*dT*kG*kA*kG; antisense) [compound 1074868] | 74 % UTC
1076532 (kA*kT*kT*dT*dT*dT*dA*dG*dG*d[5mC]*dA*dG*dA*k[5mC]*kG*k[5mC]; antisense) [compound 1076532] | 12 % UTC
1075956 (kT*kA*kT*dA*dA*dA*dG*d[5mC]*dA*dA*dT*dG*d[5mC]*kG*kA*kT; antisense) [compound 1075956] | 27 % UTC

Same assay, conditions: Table 35; Yap1 mRNA as percent of untreated control; 3-10-3 cEt gapmers targeting SEQ ID NO: 1 and 2; single dose

Substance | YAP1 (% UTC)
1074869 (kA*kG*kT*dA*d[5mC]*d[5mC]*dT*dA*dA*d[5mC]*dA*dT*dA*kT*kG*kA; antisense) [compound 1074869] | 31 % UTC
1075829 (kA*k[5mC]*kT*d[5mC]*dA*dA*dT*dA*dG*dA*dT*d[5mC]*dA*kT*kT*kG; antisense) [compound 1075829] | 41 % UTC
1074805 (kG*kT*kA*dG*d[5mC]*dA*dA*dA*dG*dT*d[5mC]*dA*d[5mC]*kT*kT*k[5mC]; antisense) [compound 1074805] | 9 % UTC
1074357 (antisense k[5mC]*kG*kA*dG*dG*dG*dA*d[5mC]*dA*d[5mC]*dT*dG*dT*kA*kG*k[5mC]) [compound 1074357] | 12 % UTC
1076373 (antisense kA*kA*k[5mC]*dG*dG*dA*dT*dA*dT*dA*d[5mC]*dA*dA*kT*kA*kA) [compound 1076373] | 10 % UTC
1074389 (kG*k[5mC]*kA*dG*dA*d[5mC]*dT*dT*dG*dG*d[5mC]*dA*dT*k[5mC]*kA*kG; antisense) [compound 1074389] | 14 % UTC
